This is an account of results in patent publication US4313931A, “Fused dibenzo imidazolo compounds, compositions and use” (Boehringer Ingelheim KG, priority 1980, dated 1982).

As a reminder, the LD50 is the dose at which mortality reaches 50%. A lower LD50 goes with greater toxicity. What is called ED50 is the midpoint of the dose-response relation.

Where a name gives a salt, the structure may show the parent alone.

A short description of data set [1]: in vivo. Particulars: po, mouse p.o.
Data set [2] concerns sensitized rats (passive cutaneous anaphylaxis). Nature of the data set: passive cutaneous anaphylaxis (PCA) in sensitized rats. As to conditions: po; rat p.o. The format is in vivo.
Data set [3] deals with sensitized rats (passive lung anaphylaxis). The data set is described as follows: animal or person. Particulars: Rattus norvegicus, iv, read-out: PLA ED50. Here is the method: (a) Tests in sensitized rats were performed after passive sensitization of the animals by IgE-antibodies and subsequent antigen challenge. In this manner a passive cutaneous anaphylaxis (GOOSE et al. (1969): Immunology 16, 749) (PCA) and a passive lung anaphylaxis ([…] et al. (1975): Br. J. Pharmac. 55, 57) (PLA, experimental asthma) could be provoked.

In data set [1], `Br.NC1=NCC2c3ccccc3Oc3ccccc3N12` (centres unmarked) [Example 1(c), 3-amino-1,13b-dihydro-dibenzo[b,f]imidazo[1,5-d][1,4]-oxazepine hydrobromide] had an LD50 of 340 mg/kg. Further, in data set [2], the ED50 was determined as 1.1 mg/kg.
Turning to `NC1=NCC2c3cc(Cl)ccc3Oc3ccccc3N12` (centres unmarked) [Example 1(d), 3-amino-12-chloro-1,13b-dihydro[b,f]imidazo[1,5-d][1,4]oxazepine hydrobromide], the ED50 in data set [2] came out at 2.5 mg/kg.
For `NC1=NCC2c3ccccc3Cc3ccccc3N12` (centres unmarked) [Example 1, 3-Amino-9,13b-dihydro-1H-dibenzo[c,f]imidazo[1,5-a]azepine hydrobromide], the ED50 in data set [2] was 6 mg/kg; in data set [3], 0.052 mg/kg.
Consider `Br.NC1=NCC2c3ccccc3Sc3ccccc3N12` (centres unmarked) [Example 1(i), 3-amino-1,13b-dihydro-dibenzo[b,f]imidazo[1,5-d][1,4]-thiazepine hydrobromide], for which the ED50 in data set [2] came out at 3.8 mg/kg.
Turning to `Cl.NC1=NCC2c3ccccc3Cc3cc(Cl)ccc3N12` (centres unmarked) [Example 1(a), 3-amino-7-chloro-9,13b-dihydro-1H-dibenzo[c,f]-imidazo[1,5-a]azepine hydrochloride], the ED50 in data set [2] turned out to be 0.96 mg/kg.
On the same count and under the same terms, for `Br.NC1=NCC2c3cc(Cl)ccc3Sc3ccccc3N12` (centres unmarked) [Example 1(l), 3-amino-12-chloro-1,13b-dihydro-dibenzo[b,f]imidazo[1,5-d][1,4]thiazepine hydrobromide] the value was 5.4 mg/kg.
